We go through six cell lines from the supplement of paper PMC10307832.

Assay in all cases: relative viability (nuclei count vs DMSO), 5 days (fraction); higher = more cells survive
Compound in assay [1]: CCN(CC)CCNC(=O)c1c(C)[nH]c(/C=C2\C(=O)Nc3ccc(F)cc32)c1C [Sunitinib] + CCNC(=O)c1noc(-c2cc(C(C)C)c(O)cc2O)c1-c1ccc(CN2CCOCC2)cc1 [Luminespib] (partner 0.01 µM)
A digest of the protocol:
(§1)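 Five library-drug doses in √10 steps were combined with a fixed anchor-drug dose, or a single drug was given alone, by pin tool to lung cancer cell lines in 1536-well plates the day after seeding. Nuclei were stained and counted after 5 days. Relative viability is the nuclei count in treated wells over that in vehicle wells, taken as the median of duplicate plates.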

Compound in assay [2]: CCN(CC)CCNC(=O)c1c(C)[nH]c(/C=C2\C(=O)Nc3ccc(F)cc32)c1C [Sunitinib] + CS(=O)(=O)CCNCc1ccc(-c2ccc3ncnc(Nc4ccc(OCc5cccc(F)c5)c(Cl)c4)c3c2)o1 [Lapatinib] (partner 2 µM)
Put shortly: as §1

Compound in assay [3]: CCN(CC)CCNC(=O)c1c(C)[nH]c(/C=C2\C(=O)Nc3ccc(F)cc32)c1C [Sunitinib] + Nc1ncn([C@H]2C[C@H](O)[C@@H](CO)O2)c(=O)n1 [Decitabine] (partner 2 µM)
A digest of the protocol:
as §1

Compound in assay [4]: CCN(CC)CCNC(=O)c1c(C)[nH]c(/C=C2\C(=O)Nc3ccc(F)cc32)c1C [Sunitinib] + O=C(c1cc(Cc2n[nH]c(=O)c3ccccc23)ccc1F)N1CCN(C(=O)C2CC2)CC1 [Olaparib] (partner 8 µM)
Put shortly: as §1

For NCI-H1651, the relative viability in assay [1] (first compound 0.02 µM) was 0.758; in assay [1] (first compound 0.06325 µM) it was 0.766; in assay [1] (first compound 0.2 µM) it was 1.06; in assay [1] (first compound 0.6325 µM), 0.942; in assay [1] (first compound 2 µM), 1.14; in assay [2] (first compound 0.02 µM) it was 0.766. The relative viability is 1.21 in assay [2] (first compound 0.06325 µM); 1.06 in assay [2] (first compound 0.2 µM); 0.893 in assay [2] (first compound 0.6325 µM); 0.923 in assay [2] (first compound 2 µM); 0.552 in assay [3] (first compound 0.02 µM); 0.633 in assay [3] (first compound 0.06325 µM). Besides, the relative viability in assay [3] (first compound 0.2 µM) is 0.591; in assay [3] (first compound 0.6325 µM) it was 0.557; in assay [3] (first compound 2 µM) it was 0.523; in assay [4] (first compound 0.02 µM), 0.213; in assay [4] (first compound 0.06325 µM), 0.196; in assay [4] (first compound 0.2 µM), 0.199. Further, the relative viability in assay [4] (first compound 0.6325 µM) turned out to be 0.17; in assay [4] (first compound 2 µM) it was 0.179.
For the cell line LU99A, the relative viability in assay [1] (first compound 0.02 µM) was determined as 0.281; in assay [1] (first compound 0.06325 µM) it was 0.254; in assay [1] (first compound 0.2 µM), 0.281; in assay [1] (first compound 0.6325 µM), 0.221; in assay [1] (first compound 2 µM), 0.299; in assay [2] (first compound 0.02 µM), 0.869. Also, the relative viability amounted to 1.12 in assay [2] (first compound 0.06325 µM); 0.925 in assay [2] (first compound 0.2 µM); 1.14 in assay [2] (first compound 0.6325 µM); 1.01 in assay [2] (first compound 2 µM); 0.792 in assay [3] (first compound 0.02 µM); 0.836 in assay [3] (first compound 0.06325 µM). Besides, the relative viability worked out at 1.02 in assay [3] (first compound 0.2 µM); 0.995 in assay [3] (first compound 0.6325 µM); 0.734 in assay [3] (first compound 2 µM); 0.267 in assay [4] (first compound 0.02 µM); 0.27 in assay [4] (first compound 0.06325 µM); 0.271 in assay [4] (first compound 0.2 µM). Moreover, the relative viability in assay [4] (first compound 0.6325 µM) worked out at 0.321; in assay [4] (first compound 2 µM), 0.295.
On to NCI-H322M, for which the relative viability amounted to 0.859 in assay [1] (first compound 0.06325 µM); 0.966 in assay [1] (first compound 0.2 µM); 0.948 in assay [1] (first compound 0.6325 µM); 0.616 in assay [1] (first compound 2 µM); 0.594 in assay [2] (first compound 0.02 µM); 0.649 in assay [2] (first compound 0.06325 µM). In addition, the relative viability worked out at 0.583 in assay [2] (first compound 0.2 µM); 0.655 in assay [2] (first compound 0.6325 µM); 0.633 in assay [2] (first compound 2 µM); 0.664 in assay [3] (first compound 0.02 µM); 0.72 in assay [3] (first compound 0.06325 µM); 0.654 in assay [3] (first compound 0.2 µM). Further, the relative viability in assay [3] (first compound 0.6325 µM) is 0.798; in assay [3] (first compound 2 µM), 0.696; in assay [4] (first compound 0.02 µM), 0.83; in assay [4] (first compound 0.06325 µM), 0.771; in assay [4] (first compound 0.2 µM) it was 0.798; in assay [4] (first compound 0.6325 µM), 0.802. Further, the relative viability in assay [4] (first compound 2 µM) turned out to be 0.745.
With NCI-H2347, the relative viability was 0.486 in assay [1] (first compound 0.02 µM); 0.355 in assay [1] (first compound 0.06325 µM); 0.377 in assay [1] (first compound 0.2 µM); 0.238 in assay [1] (first compound 0.6325 µM); 0.558 in assay [1] (first compound 2 µM); 0.873 in assay [2] (first compound 0.02 µM). In addition, the relative viability was determined as 1.17 in assay [2] (first compound 0.2 µM); 1.03 in assay [2] (first compound 0.6325 µM); 0.95 in assay [2] (first compound 2 µM); 0.562 in assay [3] (first compound 0.02 µM); 0.617 in assay [3] (first compound 0.06325 µM); 0.642 in assay [3] (first compound 0.2 µM). For the same cell line, the relative viability was found to be 0.66 in assay [3] (first compound 0.6325 µM); 0.596 in assay [4] (first compound 0.02 µM); 0.611 in assay [4] (first compound 0.06325 µM); 0.695 in assay [4] (first compound 0.2 µM); 0.609 in assay [4] (first compound 0.6325 µM); 0.572 in assay [4] (first compound 2 µM).
On to HOP-62, for which the relative viability in assay [1] (first compound 0.02 µM) came to 0.832; in assay [1] (first compound 0.06325 µM), 0.928; in assay [1] (first compound 0.2 µM) it was 1; in assay [1] (first compound 0.6325 µM), 1.02; in assay [1] (first compound 2 µM) it was 0.919; in assay [2] (first compound 0.02 µM), 0.961. The relative viability in assay [2] (first compound 0.06325 µM) worked out at 1.09; in assay [2] (first compound 0.2 µM) it was 1.01; in assay [2] (first compound 0.6325 µM) it was 1.01; in assay [2] (first compound 2 µM), 1.1; in assay [3] (first compound 0.02 µM), 0.22; in assay [3] (first compound 0.06325 µM) it was 0.218. Besides, the relative viability came to 0.252 in assay [3] (first compound 0.2 µM); 0.209 in assay [3] (first compound 0.6325 µM); 0.239 in assay [3] (first compound 2 µM); 0.453 in assay [4] (first compound 0.02 µM); 0.374 in assay [4] (first compound 0.06325 µM); 0.449 in assay [4] (first compound 0.2 µM). For the same cell line, the figures for the relative viability in assay [4] (first compound 0.6325 µM) and in assay [4] (first compound 2 µM) were 0.472 and 0.63, respectively.
Take NCI-H520: the relative viability in assay [1] (first compound 0.02 µM) turned out to be 0.22; in assay [1] (first compound 0.06325 µM) it was 0.231; in assay [1] (first compound 0.2 µM) it was 0.214; in assay [1] (first compound 0.6325 µM), 0.22; in assay [1] (first compound 2 µM), 0.228; in assay [2] (first compound 0.02 µM), 0.786. For the same cell line, the relative viability was 0.964 in assay [2] (first compound 0.2 µM); 0.916 in assay [2] (first compound 0.6325 µM); 0.487 in assay [3] (first compound 0.02 µM); 0.499 in assay [3] (first compound 0.06325 µM); 0.55 in assay [3] (first compound 0.2 µM); 0.577 in assay [3] (first compound 0.6325 µM). For the same cell line, the relative viability in assay [3] (first compound 2 µM) was 0.537; in assay [4] (first compound 0.02 µM) it was 0.395; in assay [4] (first compound 0.06325 µM) it was 0.338; in assay [4] (first compound 0.2 µM), 0.314; in assay [4] (first compound 0.6325 µM), 0.377; in assay [4] (first compound 2 µM) it was 0.335.
